Paper PMC8286840, “Identifying SARS-CoV-2 antiviral compounds by screening for small molecule inhibitors of Nsp3 papain-like protease” (Biochemical Journal, 2021)
Structures can show the parent of a compound that is named as a salt. Where two headings read alike, the source gives them in different places.

Tests used:
[1] = target: T1, SARS-CoV-2 PLpro (nsp3 1564–1878) (Severe acute respiratory syndrome coronavirus 2, UniProt P0DTD1); experiment: biochemical; parameters: FRET-quenched peptide (Pro3) cleavage by PLpro, 10 min pre-incubation, slope over 20 min, normalised to no-compound control; details: high concentration screen, read-out: % of control remaining
[2] = target: T1, SARS-CoV-2 PLpro (nsp3 1564–1878); experiment: biochemical; parameters: FRET-quenched peptide (Pro3) cleavage by PLpro, 10 min pre-incubation, slope over 20 min, normalised to no-compound control; details: low concentration screen, read-out: % of control remaining

With `O[C@@H]1[C@@H](O)[C@H](OC/C=C/c2ccccc2)O[C@H](CO[C@@H]2OC[C@H](O)[C@H](O)[C@H]2O)[C@H]1O` [Rosavin] the remaining activity at 3.75 µM ([1]; Well no.=5422) was 104% and the remaining activity at 1.25 µM ([2]; Well no.=5422) was 101%.
With `CN(CCOc1ccc(CC2SC(=O)NC2=O)cc1)c1ccccn1` (centres unmarked) [Rosiglitazone (Avandia)] the remaining activity at 3.75 µM ([1]; Well no.=4924) was 89.9% and the remaining activity at 1.25 µM ([2]; Well no.=4924) was 95.4%.
For `CN(CCOc1ccc(CC2SC(=O)NC2=O)cc1)c1ccccn1` (centres unmarked) [Rosiglitazone HCl], the remaining activity at 3.75 µM ([1]; Well no.=4758) was 97.3% and the remaining activity at 1.25 µM ([2]; Well no.=4758) was 102%.
In the case of `CN(CCOc1ccc(CC2SC(=O)NC2=O)cc1)c1ccccn1` (centres unmarked) [Rosiglitazone maleate], the remaining activity at 3.75 µM ([1]; Well no.=1651) is reported as 105% and the remaining activity at 1.25 µM ([2]; Well no.=1651) is reported as 104%.
Compound `O=C(/C=C/c1ccc(O)c(O)c1)O[C@H](Cc1ccc(O)c(O)c1)C(=O)O` [Rosmarinic acid] has a remaining activity at 3.75 µM ([1]; Well no.=3140) of 103%, a remaining activity at 3.75 µM ([1]; Well no.=3940) of 99.3% and a remaining activity at 3.75 µM ([1]; Well no.=4516) of 94.6%. It also gave a remaining activity at 1.25 µM ([2]; Well no.=3940) of 102% and a remaining activity at 1.25 µM ([2]; Well no.=4516) of 95%.
Compound `CC(C)c1nc(N(C)S(C)(=O)=O)nc(-c2ccc(F)cc2)c1/C=C/[C@@H](O)C[C@@H](O)CC(=O)O` [Rosuvastatin Calcium] has a remaining activity at 3.75 µM ([1]; Well no.=8240) of 93.8% and a remaining activity at 1.25 µM ([2]; Well no.=8240) of 96.8%.
In the case of `C=C(C)[C@H]1Cc2c(ccc3c2O[C@@H]2COc4cc(OC)c(OC)cc4[C@@H]2C3=O)O1` [Rotenone], the remaining activity at 3.75 µM ([1]; Well no.=1494) is reported as 98.9%, the remaining activity at 3.75 µM ([1]; Well no.=3142) is reported as 98.6% and the remaining activity at 3.75 µM ([1]; Well no.=7122) is reported as 89.8%. It also gave a remaining activity at 1.25 µM ([2]; Well no.=1494) of 97.2%, a remaining activity at 1.25 µM ([2]; Well no.=3142) of 104% and a remaining activity at 1.25 µM ([2]; Well no.=7122) of 91.7%.
`CCCN(CCc1cccs1)[C@H]1CCc2c(O)cccc2C1` [Rotigotine (Hydrochloride)] was tested, and the remaining activity at 3.75 µM ([1]; Well no.=8157) was 89.4% and the remaining activity at 1.25 µM ([2]; Well no.=8157) was 96.4%.
`CCCN(CCc1cccs1)[C@H]1CCc2c(O)cccc2C1` [Rotigotine] was tested, and the remaining activity at 3.75 µM ([1]; Well no.=8349) was 88.8% and the remaining activity at 1.25 µM ([2]; Well no.=8349) was 92.3%.
Work on `CC(=O)c1c(O)c(C)c(O)c(Cc2c(O)c3c(c(C(=O)/C=C/c4ccccc4)c2O)OC(C)(C)C=C3)c1O` [Rottlerin] yielded a remaining activity at 3.75 µM ([1]; Well no.=1206) of 102% and a remaining activity at 1.25 µM ([2]; Well no.=1206) of 103%.
In the case of `COc1cc2c(cc1OC)[C@@H]1Cc3ccc(OC)c(OC)c3CN1CC2` [Rotundine], the remaining activity at 3.75 µM ([1]; Well no.=4894) is reported as 94.7% and the remaining activity at 1.25 µM ([2]; Well no.=4894) is reported as 96.9%.
In the case of `CC(=O)OCC(=O)NCCCOc1cccc(CN2CCCCC2)c1` [Roxatidine (Acetate Hydrochloride)], the remaining activity at 3.75 µM ([1]; Well no.=6701) is reported as 105% and the remaining activity at 1.25 µM ([2]; Well no.=6701) is reported as 102%.
`CC(=O)OCC(=O)NCCCOc1cccc(CN2CCCCC2)c1` [Roxatidine acetate.HCl] was tested, and the remaining activity at 3.75 µM ([1]; Well no.=2235) was 101% and the remaining activity at 1.25 µM ([2]; Well no.=2235) was 97.2%.
`CC[C@H]1OC(=O)[C@H](C)[C@@H](O[C@H]2C[C@@](C)(OC)[C@@H](O)[C@H](C)O2)[C@H](C)[C@@H](O[C@@H]2O[C@H](C)C[C@H](N(C)C)[C@H]2O)[C@](C)(O)C[C@@H](C)/C(=N\OCOCCOC)[C@H](C)[C@@H](O)[C@]1(C)O` [Roxithromycin] gave a remaining activity at 3.75 µM ([1]; Well no.=2237) of 102% and a remaining activity at 1.25 µM ([2]; Well no.=2237) of 101%.
With `C=C1C(=O)[C@]23[C@H](CC[C@@H]1[C@@H]2O)[C@]12CO[C@@]3(O)[C@H](O)[C@H]1C(C)(C)CC[C@@H]2O` [Rubescensin A] the remaining activity at 3.75 µM ([1]; Well no.=3707) was 93.6% and the remaining activity at 1.25 µM ([2]; Well no.=3707) was 95.2%.
For `CN1CCN(c2c(F)cc3c(=O)c(C(=O)O)cn4c3c2SCC4)CC1` [Rufloxacin], the remaining activity at 3.75 µM ([1]; Well no.=2239) was 97.3% and the remaining activity at 1.25 µM ([2]; Well no.=2239) was 98.6%.
`Cc1cncc(CN2CCC(=C3c4ccc(Cl)cc4CCc4cccnc43)CC2)c1` [Rupatadine (Fumarate)] showed a remaining activity at 3.75 µM ([1]; Well no.=7665) of 102% and a remaining activity at 1.25 µM ([2]; Well no.=7665) of 98.2%.
For `Cc1cncc(CN2CCC(=C3c4ccc(Cl)cc4CCc4cccnc43)CC2)c1` [Rupatadine Fumarate], the remaining activity at 3.75 µM ([1]; Well no.=4925) was 101% and the remaining activity at 1.25 µM ([2]; Well no.=4925) was 103%.
For `O=c1c2ccccc2nc2n1CCc1c-2[nH]c2ccccc12` [Rutaecarpine], the remaining activity at 3.75 µM ([1]; Well no.=1396) was 99.4%, the remaining activity at 3.75 µM ([1]; Well no.=3709) was 101% and the remaining activity at 1.25 µM ([2]; Well no.=1396) was 96.2%. The remaining activity at 1.25 µM ([2]; Well no.=3709) was 100%.
Compound `C[C@@H]1O[C@@H](OC[C@H]2O[C@@H](Oc3c(-c4ccc(O)c(O)c4)oc4cc(O)cc(O)c4c3=O)[C@H](O)[C@@H](O)[C@@H]2O)[C@H](O)[C@H](O)[C@H]1O` [Rutin] has a remaining activity at 3.75 µM ([1]; Well no.=3711) of 106% and a remaining activity at 1.25 µM ([2]; Well no.=3711) of 103%.
`N#CC[C@H](C1CCCC1)n1cc(-c2ncnc3[nH]ccc23)cn1` [Ruxolitinib (INCB018424)] gave a remaining activity at 3.75 µM ([1]; Well no.=4805) of 104% and a remaining activity at 1.25 µM ([2]; Well no.=4805) of 103%.
With `CC(C)[C@@]1(O)[C@@H](OC(=O)c2ccc[nH]2)[C@@]2(O)[C@@]3(C)C[C@]4(O)O[C@@]5([C@H](O)[C@@H](C)CC[C@]35O)[C@@]2(O)[C@@]14C` [Ryanodine] the remaining activity at 3.75 µM ([1]; Well no.=3583) was 105% and the remaining activity at 1.25 µM ([2]; Well no.=3583) was 104%.
With `Cc1ccc(NC2=CC(=O)c3sc(C)nc3C2=O)cc1` [Ryuvidine - 2-Methyl-5-[(4-methylphenyl)amino]-4,7-benzothiazoledione] the remaining activity at 3.75 µM ([1]; Well no.=2584) was 85% and the remaining activity at 1.25 µM ([2]; Well no.=2584) was 86.3%.
`Cc1c(-c2c(-c3ccc(F)o3)sc3ncnc(O[C@H](Cc4ccccc4OCc4ccnn4CC(F)(F)F)C(=O)O)c23)ccc(OCCN2CCN(C)CC2)c1Cl` [S63845] showed a remaining activity at 3.75 µM ([1]; Well no.=7208) of 88.1% and a remaining activity at 1.25 µM ([2]; Well no.=7208) of 92.6%.
Work on `CC(C)Cc1ccc([C@H](C)C(=O)O)cc1` [S(+)-Ibuprofen] yielded a remaining activity at 3.75 µM ([1]; Well no.=825) of 105% and a remaining activity at 1.25 µM ([2]; Well no.=825) of 103%.
In the case of `CC(C)NCC(O)c1ccc(O)c(O)c1` (stereo not drawn) [S(+)-Isoproterenol (+)-bitartrate], the remaining activity at 3.75 µM ([1]; Well no.=823) is reported as 105% and the remaining activity at 1.25 µM ([2]; Well no.=823) is reported as 102%.
`CCCN1CCO[C@@H]2c3cc(O)ccc3OC[C@H]21` [S(+)-PD 128,907 hydrochloride] showed a remaining activity at 3.75 µM ([1]; Well no.=1265) of 104% and a remaining activity at 1.25 µM ([2]; Well no.=1265) of 102%.
In the case of `CCN1CCC[C@H]1CNC(=O)c1c(O)c(Cl)cc(Cl)c1OC` [S(+)-Raclopride L-tartrate], the remaining activity at 3.75 µM ([1]; Well no.=1354) is reported as 103% and the remaining activity at 1.25 µM ([2]; Well no.=1354) is reported as 104%.
Compound `CCCN1CCC[C@@H](c2cccc(C#N)c2)C1` [S(-)-DS 121 hydrochloride] has a remaining activity at 3.75 µM ([1]; Well no.=596) of 101% and a remaining activity at 1.25 µM ([2]; Well no.=596) of 100%.
`CCN1CCC[C@H]1CNC(=O)c1c(OC)ccc(I)c1O` [S(-)-IBZM] showed a remaining activity at 3.75 µM ([1]; Well no.=875) of 99.1% and a remaining activity at 1.25 µM ([2]; Well no.=875) of 98.1%.
With `CC(C)(C)NCC(O)COc1nsnc1N1CCOCC1` (stereo not drawn) [S(-)-Timolol maleate] the remaining activity at 3.75 µM ([1]; Well no.=1483) was 96% and the remaining activity at 1.25 µM ([2]; Well no.=1483) was 97.1%.
